Results taken from ChEMBL document CHEMBL1201862, “PubChem BioAssay data set” (2004).
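Five compound concentrations were applied to cells in 96-well plates for 48 hours; endpoints were derived by simple linear interpolation of the resulting dose-response curve. GI50 is the concentration that inhibits growth by half.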 Active and inactive are the calls of the source. Rule as the data show it: active = GI50 up to about 1.1 µM and inactive = higher.

How the values were obtained:
Test in all cases: NCI tumour cell line growth inhibition, 48 h
786-0 = test system: 786-0
ACHN = test system: ACHN
BT-549 = test system: BT-549
CCRF-CEM = test system: CCRF-CEM
HOP-62 = test system: HOP-62
HOP-92 = test system: HOP-92
KM12 = test system: KM12
MCF7 = test system: MCF7
MDA-N = test system: MDA-N
NCI-H226 = test system: NCI-H226
NCI-H460 = test system: NCI-H460
OVCAR-5 = test system: OVCAR-5
OVCAR-8 = test system: OVCAR-8
RXF 393 = test system: RXF 393
SK-MEL-2 = test system: SK-MEL-2
SK-OV-3 = test system: SK-OV-3
T47D = test system: T47D
TK-10 = test system: TK-10

Measured: GI50

O=C1c2ccccc2C(=O)c2c(NCC3CO3)cccc21 (configuration not stated)
inactive: 786-0 12.2 µM | ACHN 8.67 µM | BT-549 19 µM | CCRF-CEM 1.43 µM | HOP-62 > 46.1 µM | HOP-92 94.4 µM | KM12 18.6 µM | MCF7 1.31 µM | MDA-N 8.99 µM | NCI-H226 > 100 µM | NCI-H460 > 64.7 µM | OVCAR-5 > 71.3 µM | OVCAR-8 7.19 µM | RXF 393 7.66 µM | SK-MEL-2 17.2 µM | SK-OV-3 > 95.7 µM | T47D > 100 µM | TK-10 40.9 µM

O=S(=O)(O)/C(=N\c1cccc(Cc2ccccc2)c1)Nc1cccc(Cc2ccccc2)c1
inactive: 786-0 15.2 µM | ACHN 17.4 µM | BT-549 17.7 µM | CCRF-CEM 27.2 µM | HOP-62 32.6 µM | HOP-92 14.9 µM | KM12 17.3 µM | MCF7 19.2 µM | MDA-N 20.4 µM | NCI-H226 18 µM | OVCAR-5 18.1 µM | OVCAR-8 18.5 µM | RXF 393 16.4 µM | SK-MEL-2 21.6 µM | SK-OV-3 21 µM | T47D 15.8 µM | TK-10 19.8 µM

CC1(C)C2CC(=O)C1(C)C(O)C2Br (configuration not stated)
inactive: 786-0 > 100 µM | ACHN > 100 µM | BT-549 > 100 µM | CCRF-CEM > 100 µM | HOP-62 > 100 µM | HOP-92 > 100 µM | KM12 > 100 µM | MCF7 > 100 µM | MDA-N > 100 µM | NCI-H226 > 100 µM | NCI-H460 > 100 µM | OVCAR-5 > 100 µM | OVCAR-8 > 100 µM | RXF 393 > 100 µM | SK-MEL-2 > 100 µM | SK-OV-3 > 100 µM | T47D > 100 µM | TK-10 > 100 µM

CC(=O)OC[C@@]1(C)[C@@H]2[C@@H]3[C@@]4(CO[C@]3(C)C(=O)[C@@]3(O)C[C@H](C)[C@H](OC(C)=O)[C@@H]3[C@H]4OC(C)=O)[C@H](OC(=O)c3ccccc3)C[C@@H]21
inactive: 786-0 > 100 µM | ACHN > 100 µM | BT-549 > 100 µM | CCRF-CEM > 100 µM | HOP-62 > 100 µM | HOP-92 > 100 µM | KM12 > 100 µM | MCF7 > 100 µM | MDA-N > 100 µM | NCI-H226 > 100 µM | NCI-H460 > 100 µM | OVCAR-5 > 100 µM | OVCAR-8 > 100 µM | RXF 393 > 100 µM | SK-MEL-2 > 100 µM | SK-OV-3 > 100 µM | T47D > 100 µM | TK-10 > 100 µM

COC(=O)CC1C(COC(C)=O)OC(n2cc(C)c(=O)[nH]c2=O)C1OC(C)=O (configuration not stated)
inactive: 786-0 > 100 µM | ACHN > 100 µM | BT-549 > 100 µM | CCRF-CEM > 100 µM | HOP-62 > 100 µM | HOP-92 > 100 µM | KM12 > 100 µM | MCF7 > 100 µM | MDA-N > 100 µM | NCI-H226 > 100 µM | NCI-H460 > 100 µM | OVCAR-5 > 100 µM | OVCAR-8 > 100 µM | RXF 393 > 100 µM | SK-MEL-2 > 100 µM | SK-OV-3 > 100 µM | T47D > 100 µM | TK-10 > 100 µM

O=C(Nc1cccc(Cl)c1)Nn1cnnc1
active: OVCAR-5 0.339 µM
inactive: 786-0 > 100 µM | ACHN > 100 µM | BT-549 > 100 µM | CCRF-CEM > 100 µM | HOP-62 > 100 µM | HOP-92 > 100 µM | KM12 > 100 µM | MCF7 > 100 µM | MDA-N > 100 µM | NCI-H226 > 100 µM | NCI-H460 > 100 µM | OVCAR-8 > 100 µM | RXF 393 > 100 µM | SK-MEL-2 > 100 µM | SK-OV-3 > 100 µM | T47D > 100 µM | TK-10 > 100 µM

N/C(=N\N=C\c1nc2ccccc2o1)c1cnccn1
inactive: 786-0 66.7 µM | ACHN 70.8 µM | BT-549 > 100 µM | CCRF-CEM > 100 µM | HOP-62 43.2 µM | HOP-92 > 100 µM | KM12 > 100 µM | MCF7 > 100 µM | MDA-N > 100 µM | NCI-H226 > 100 µM | NCI-H460 72.9 µM | OVCAR-5 > 100 µM | OVCAR-8 > 100 µM | RXF 393 49.5 µM | SK-MEL-2 80.7 µM | SK-OV-3 42.7 µM | T47D 51.4 µM | TK-10 30.7 µM

Cc1cccc(/N=N/c2c(C)nn(C(=O)CC(=O)Nc3ccc(Cl)cc3)c2C)c1
inactive: 786-0 82 µM | ACHN 60.5 µM | BT-549 > 100 µM | CCRF-CEM 32.4 µM | HOP-62 37.1 µM | HOP-92 21 µM | KM12 > 100 µM | MCF7 > 100 µM | MDA-N 83.8 µM | NCI-H226 20 µM | NCI-H460 85.3 µM | OVCAR-5 45.6 µM | OVCAR-8 > 100 µM | RXF 393 48.1 µM | SK-MEL-2 67.5 µM | SK-OV-3 65.6 µM | T47D 64.3 µM | TK-10 > 100 µM

COc1ccc(C(=O)/C=C/c2ccc3c(c2)OCO3)c(OCc2ccccc2)c1
inactive: 786-0 > 67.8 µM | ACHN 16.6 µM | BT-549 4.79 µM | CCRF-CEM 4.3 µM | HOP-62 > 100 µM | HOP-92 > 78 µM | KM12 4.83 µM | MCF7 6.22 µM | MDA-N 11.7 µM | NCI-H226 18.6 µM | NCI-H460 8.22 µM | OVCAR-5 > 76.7 µM | OVCAR-8 7.67 µM | RXF 393 11 µM | SK-MEL-2 > 57.1 µM | SK-OV-3 > 54.8 µM | T47D > 43.5 µM | TK-10 > 90.8 µM

Cc1c(-c2nc(N)nc(C3CC3)c2C)nc(N)nc1C1CC1
inactive: 786-0 > 100 µM | ACHN > 100 µM | BT-549 > 100 µM | CCRF-CEM > 100 µM | HOP-62 > 100 µM | HOP-92 > 100 µM | KM12 > 100 µM | MCF7 > 100 µM | MDA-N > 100 µM | NCI-H226 > 100 µM | NCI-H460 > 100 µM | OVCAR-5 > 100 µM | OVCAR-8 > 100 µM | RXF 393 > 100 µM | SK-MEL-2 > 100 µM | SK-OV-3 > 100 µM | T47D > 100 µM | TK-10 > 100 µM

COC(=O)C1C(=O)C=CN([C@H](C)c2ccccc2)[C@@H]1Cc1ccc(OC)c(OCc2ccccc2)c1I (some centres not stated)
inactive: 786-0 16.4 µM | ACHN 23.2 µM | BT-549 18.3 µM | CCRF-CEM 24.5 µM | HOP-62 20.4 µM | HOP-92 3.3 µM | KM12 19.2 µM | MCF7 17.6 µM | MDA-N 15.6 µM | NCI-H226 15.8 µM | NCI-H460 15.5 µM | OVCAR-5 27.4 µM | OVCAR-8 18.3 µM | RXF 393 11.8 µM | SK-MEL-2 18.9 µM | SK-OV-3 34 µM | T47D 13.8 µM | TK-10 23.7 µM

CCC1CC2CN3CCc4c([nH]c5c(-c6c(OC)ccc7c8c([nH]c67)[C@]6(C(=O)OC)CC7CC(CC)C6N(CC8)C7)c(O)ccc45)[C@](C(=O)OC)(C2)C13 (some centres not stated)
inactive: 786-0 12.6 µM | ACHN 19.6 µM | BT-549 17.3 µM | CCRF-CEM 15.3 µM | HOP-62 15.2 µM | HOP-92 12.9 µM | KM12 12.4 µM | MCF7 6.82 µM | MDA-N 12.2 µM | NCI-H226 4.92 µM | NCI-H460 14.7 µM | OVCAR-5 16.6 µM | OVCAR-8 20.5 µM | RXF 393 12.2 µM | SK-MEL-2 20.9 µM | SK-OV-3 25.6 µM | T47D 11.1 µM | TK-10 15.2 µM

O=C(O)c1ccc2c(c1C(=O)O)C(=O)OC2(c1ccc(O)cc1)c1ccc(O)cc1
inactive: 786-0 > 100 µM | ACHN > 100 µM | BT-549 > 100 µM | CCRF-CEM > 100 µM | HOP-62 > 100 µM | HOP-92 > 100 µM | KM12 > 100 µM | MCF7 > 100 µM | MDA-N > 100 µM | NCI-H226 > 100 µM | NCI-H460 > 100 µM | OVCAR-5 > 100 µM | OVCAR-8 > 100 µM | RXF 393 > 100 µM | SK-MEL-2 > 100 µM | SK-OV-3 > 100 µM | T47D > 100 µM | TK-10 > 100 µM

Cn1c(=O)c2ccccc2c2ccccc21
inactive: 786-0 45.6 µM | ACHN 33 µM | BT-549 39.6 µM | CCRF-CEM 66.5 µM | HOP-62 65.8 µM | HOP-92 48.3 µM | KM12 72.9 µM | MCF7 31.5 µM | MDA-N 47.8 µM | NCI-H226 32.3 µM | NCI-H460 29.3 µM | OVCAR-8 45.9 µM | RXF 393 40.6 µM | SK-MEL-2 89.1 µM | SK-OV-3 27.5 µM | T47D 57.8 µM | TK-10 34.1 µM

CC1C=C(NCC2(CO)CCC2)N=C(N)N1 (configuration not stated)
inactive: 786-0 > 100 µM | ACHN > 100 µM | BT-549 > 100 µM | CCRF-CEM > 100 µM | HOP-62 > 100 µM | HOP-92 > 100 µM | KM12 > 100 µM | MCF7 > 100 µM | MDA-N > 100 µM | NCI-H226 > 100 µM | NCI-H460 > 100 µM | OVCAR-5 > 100 µM | OVCAR-8 > 100 µM | RXF 393 > 100 µM | SK-MEL-2 > 100 µM | SK-OV-3 > 100 µM | T47D > 100 µM
